Where a name gives a salt, the structure may show the parent alone.
The compounds below were run against T1, MCH1R (Homo sapiens, UniProt Q99705) (assay: MCH1R calcium evaluation test (FDSS assay, inhibition of MCH-induced intracellular calcium increase)). Conditions: cells stably expressing non-endogenous active MCH1R; 50 nM MCH; Fluo-4 calcium, FDSS6000.
T1 construct: IC50; other: cells stably expressing non-endogenous active MCH1R; 50 nM MCH; Fluo-4 calcium, FDSS6000; list of compounds i
Format: cell-based
Text: MCH1R Calcium Evaluation Test
An FDSS assay can measure the intracellular calcium concentration and can evaluate the Gq-coupled receptor activity using the calcium concentration as an index. For example, the assay can determine whether an analyte is an antagonist, an inverse agonist or an agonist for a Gq-coupled receptor. The FDSS6000™ system (Hamamatsu Photonics K.K.) is designed to perform evaluation based on functionality such as measurement of intracellular calcium for high-throughput screening. Intracellular calcium release by activation of a Gq-coupled receptor can be fluorometrically measured by incorporating a calcium indicator (such as Fluo4) into cells. On the other hand, the assay cannot measure the activation of Gi- and Go-coupled receptors, because the activation is not associated with calcium signaling pathways.
Intracellular fluorescence can be rapidly and successively measured in a 96-well microplate or a 384-well microplate using a fluorometric imaging plate reader system. FDSS6000™ can simultaneously measure fluorescence in all wells sensitively, accurately and by seconds. This system is ideal for functional analysis in cells such as monitoring of an intracellular calcium flow generated within several seconds after activation of a Gq-coupled receptor.
On the day before the test, cells stably expressing non-endogenous active MCH1R were seeded into a 96-well microplate at 3×10^4 cells per well. 100 μL per well of a medium (Dulbecco's modified Eagle medium containing 10% fetal bovine serum, 2 mM glutamine, 1 mM sodium pyruvate and 0.5 mg/mL G418, pH 7.4) was used for culture. On the day of the test, the medium was removed and an assay buffer {Hank's balanced salt solution containing 20 mM HEPES, 0.5 mM probenecid, 0.05 mg/mL amaranth and 0.2% bovine serum albumin (BSA), pH 7.4} containing 2 μM Fluo-4-AM and 0.04% Pluronic F127 was added at 100 μL per well, followed by incubation in a 5% CO2 incubator at 37° C. for one hour. Thereafter, the buffer was removed and an assay buffer containing each concentration of the test compound was newly added at 150 μL per well, followed by incubation in a 5% CO2 incubator at 37° C. for 30 minutes. An assay buffer containing each concentration of MCH was added at 50 μL per well, and transient changes in the intracellular calcium concentration induced by MCH were monitored using FDSS6000™ at Ex. 488 nm and Em. 530 nm for 180 seconds. In testing the antagonistic activity of the analyte, MCH was added to a final concentration of 50 nM. An inhibition curve was prepared with various concentrations of the analyte, and the concentration of the analyte inhibiting 50% of the increase in intracellular calcium when 50 nM MCH was added (IC50 value) was calculated using data analysis software Origin Ver. 6.

| SMILES | IC50 [nM] |
| --- | --- |
| CCOCc1ccc2ccc(CN3CCC(NC(=O)c4ccc(F)c(Cl)c4)CC3)cc2c1 [Example 6, 3-chloro-N-(1-{[7-(ethoxymethyl)-2-naphthyl]methyl}piperidin-4-yl)-4-fluorobenzamide] | 3.54 |
| COCc1ccc2ccc(CN3CCC(NC(=O)c4cc(OC)cc(OC)c4)CC3)cc2c1 [Example 10, 3,5-Dimethoxy-N-(1-{[7-(methoxymethyl)-2-naphthyl]methyl}piperidin-4-yl)benzamide] | 4.99 |
| COCc1ccc2ccc(CN3CCC(NC(=O)c4cccc(OC)c4)CC3)cc2c1 [Example 13, 3-Methoxy-N-(1-{[7-(methoxymethyl)-2-naphthyl]methyl}piperidin-4-yl)benzamide] | 10.4 |
| COCCOCc1ccc2ccc(CN3CCC(NC(=O)c4cccc(OC)c4)CC3)cc2c1 [Example 26, 3-Methoxy-N-[1-({7-[(2-methoxyethoxy)methyl]-2-naphthyl}methyl)piperidin-4-yl]benzamide] | 5.67 |
| COc1cccc(C(=O)NC2CCN(Cc3ccc4ccc(COCCN5CCCC5)cc4c3)CC2)c1 [Example 36, 3-Methoxy-N-[1-({7-[(2-pyrrolidin-1-ylethoxy)methyl]-2-naphthyl}methyl)piperidin-4-yl]benzamide] | 6.11 |
| COc1cccc(C(=O)NC2CCN(Cc3ccc4ccc(COCCN(C)C)cc4c3)CC2)c1 [Example 37, N-{1-[(7-{[2-(dimethylamino)ethoxy]methyl}-2-naphthyl)methyl]piperidin-4-yl}-3-methoxybenzamide] | 4.89 |
| COc1cccc(C(=O)NC2CCN(Cc3ccc4ccc(CNCCN5CCCC5)cc4c3)CC2)c1 [Example 48, 3-Methoxy-N-{1-[(7-{[(2-pyrrolidin-1-ylethyl)amino]methyl}-2-naphthyl)methyl]piperidin-4-yl}benzamide] | 9.68 |
| COc1cccc(C(=O)NC2CCN(Cc3ccc4ccc(CNCCN(C)C)cc4c3)CC2)c1 [Example 49, N-(1-{[7-({[2-(Dimethylamino)ethyl]amino}methyl)-2-naphthyl]methyl}piperidin-4-yl)-3-methoxybenzamide] | 7.08 |
| COc1cccc(C(=O)NC2CCN(Cc3ccc4ccc(CNCCN)cc4c3)CC2)c1 [Example 64, N-{1-[(7-{[(2-Aminoethyl)amino]methyl}-2-naphthyl)methyl]piperidin-4-yl}-3-methoxybenzamide trihydrochloride] | 7.14 |
| CNCCNCc1ccc2ccc(CN3CCC(NC(=O)c4cccc(OC)c4)CC3)cc2c1 [Example 67, 3-Methoxy-N-(1-{[7-({[2-(methylamino)ethyl]amino}methyl)-2-naphthyl]methyl}piperidin-4-yl)benzamide trihydrochloride] | 6.51 |
| COCCOCc1ccc2ccc(CN3CCC(NC(=O)c4cccc(C(C)=O)c4)CC3)cc2c1 [Example 90, 3-Acetyl-N-[1-({7-[(2-methoxyethoxy)methyl]-2-naphthyl}methyl)piperidin-4-yl]benzamide] | 7.69 |
| COc1cccc(C(=O)NC2CCN(Cc3ccc4ccc(CCO)cc4c3)CC2)c1 [Example 120, N-(1-{[7-(2-hydroxyethyl)-2-naphthyl]methyl}piperidin-4-yl)-3-methoxybenzamide] | 7.41 |

Source: patent US20100081825A1, “1-NAPHTHYL ALKYLPIPERIDINE DERIVATIVE” (Taisho Pharmaceutical Co Ltd, priority 2006, published 2010)
